Experimental data published in patent US20250002527A1, “STEROID COMPOUND AND CONJUGATE THEREOF” (DUALITY BIOLOGICS (SUZHOU) CO., LTD., priority 2021, published 2025).

Legend:
Assay type in all cases: cell-based
glucocorticoid receptor = molecular target: T1, glucocorticoid receptor (Homo sapiens, UniProt P04150); assay: Measurement 1 of glucocorticoid receptor reporter gene GRE activity; details: HEK293 transfected with pGL5 and pBIND-GR, 24 hours
T1 construct: expressed in transfected cells; host or cells: HEK293
T1 sequence (P04150 1-777): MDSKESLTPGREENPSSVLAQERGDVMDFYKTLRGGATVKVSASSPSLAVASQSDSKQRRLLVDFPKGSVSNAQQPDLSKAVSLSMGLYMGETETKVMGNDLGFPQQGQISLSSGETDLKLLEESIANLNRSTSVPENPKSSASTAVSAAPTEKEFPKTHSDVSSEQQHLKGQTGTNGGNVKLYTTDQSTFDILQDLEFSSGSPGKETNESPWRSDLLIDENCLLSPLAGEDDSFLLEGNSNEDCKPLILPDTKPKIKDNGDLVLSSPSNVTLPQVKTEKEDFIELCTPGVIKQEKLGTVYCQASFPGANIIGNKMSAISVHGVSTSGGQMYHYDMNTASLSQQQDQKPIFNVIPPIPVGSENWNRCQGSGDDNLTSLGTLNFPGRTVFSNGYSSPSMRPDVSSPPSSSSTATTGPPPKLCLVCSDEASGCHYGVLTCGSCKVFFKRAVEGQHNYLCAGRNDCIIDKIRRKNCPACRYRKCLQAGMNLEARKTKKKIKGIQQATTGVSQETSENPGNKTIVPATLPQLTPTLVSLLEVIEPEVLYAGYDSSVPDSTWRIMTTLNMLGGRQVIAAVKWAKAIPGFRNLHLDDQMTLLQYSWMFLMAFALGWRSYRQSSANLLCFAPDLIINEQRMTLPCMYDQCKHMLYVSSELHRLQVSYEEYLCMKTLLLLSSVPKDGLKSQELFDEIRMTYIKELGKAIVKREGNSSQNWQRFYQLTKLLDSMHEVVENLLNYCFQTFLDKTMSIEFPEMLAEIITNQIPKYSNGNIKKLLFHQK
Procedure: HEK293 cells were cultured in DMEM+10% FBS medium in a carbon dioxide incubator humidified at 37° C. at 5% carbon dioxide.
The prepared transfection mixtures were added to 10 mL of the cell density-adjusted resuspension, mixed well by turning the mixtures upside down, and seeded into a 96-well plate at a volume of 100 μL/well.
The test plate was detected using the Dual-Glo Luciferase Assay System kit from Promega, and the fluorescence signal of Firefly Luciferase and the fluorescence signal of Renilla Luciferase were read using Enspire, respectively.
The final measurement value was a normalized value “F/R” obtained by dividing the Firefly Luciferase fluorescent signal by the Renilla Luciferase fluorescent signal.
The data were copied and pasted into Excel, and the activation rate was obtained through an equation.
The data were imported into MS Excel and subjected to curve fitting by using XLFit excel add-in version 5.4.0.8 to obtain an EC50 value.
Y is the agonism and X is the concentration of the compound.

human PBMC cells [1] = assay: TNF-α secretion from PBMC under R848 stimulation (compounds); details: R848 5 μM, 24 hours, mean ± standard deviation
Procedure: (§1) The compounds of the present application were tested for their inhibitory effect on the production of peripheral blood monocytes. The peripheral blood monocytes were treated in vitro with the ligand-drug conjugate at different concentrations, and IFNα and TNFα generated by the peripheral blood monocytes were quantitatively detected after a certain time. The compounds of the present invention were evaluated for in-vitro activity.
(§2) The cryopreserved human PBMC cells were resuspended in a complete medium and counted, and the cell suspension was adjusted to 2.5×10*6 cells/mL with the culture medium. After the suspension was centrifuged to collect the cells the next day, the cells were resuspended using fresh culture medium. Test compounds were diluted to 4-fold final concentration in cell culture medium, 50 μL of the compounds were added into a 96-well cell plate, and 100 μL of diluted cells ([…]) were added into each well of the 96-well plate containing the compounds, followed by addition of 50 μL R848 to a final concentration of 5 μM. The cell plate was incubated at 37° C. with 5% CO2 for 24 hours. The supernatant was collected, and the TNF-α and IFN-α concentration levels in the supernatant were detected using an ELISA kit.
TNF-α concentration assay was performed using Dakewe TNF-α ELISA kit (Cat #1117202), 100 μL of the serially-diluted cytokine standard was added into each well, 100 μL of the above supernatant diluted 10-fold was added into each well, and 100 μL of 1× dilution buffer R was added into each blank well. 50 μL of biotinylated antibody working solution was added into each well. After mixing well, the plate was covered with the plate-sealing membrane and incubated at room temperature for 3 hours. The plate was washed for 3 times: the liquid in each well was discarded, and 300 μL of 1× washing buffer working solution was added into each well; after 1 minute of residence, the liquid in the wells was discarded. The procedure was repeated for 3 times. 100 μL of Streptavidin-HRP working solution was added into each well. The plate was covered with the plate-sealing membrane and incubated at room temperature for 20 minutes. The plate was washed for 3 times, 100 μL of TMB liquid was added into each well, and the plate was incubated for 25 minutes at room temperature (18-25° C.) in the dark. The reaction was stopped by adding 100 μL stop solution rapidly to each well. The reading at a wavelength of 450 nm was detected by an M2e instrument within 10 minutes after termination.
(§3) The contents of TNF-α and IFN-α were calculated from the OD450 values.

human PBMC cells [2] = assay: IFN-α secretion from PBMC under R848 stimulation (compounds); details: R848 5 μM, 24 hours, mean ± standard deviation
Procedure: as §1, §2
50 μL of biotinylated antibody working solution was added into each well. After mixing well, the plate was covered with the plate-sealing membrane and incubated at room temperature for 3 hours. […] The procedure was repeated for 3 times. 100 μL of Streptavidin-HRP working solution was added into each well. The plate was covered with the plate-sealing membrane and incubated at room temperature for 20 minutes. The plate was washed for 3 times, 100 μL of TMB liquid was added into each well, and the plate was incubated for 25 minutes at room temperature (18-25° C.) in the dark. The reaction was stopped by adding 100 μL stop solution rapidly to each well. The reading at a wavelength of 450 nm was detected by an M2e instrument within 10 minutes after termination.
as §3

SMILES: C[C@]12C=CC(=O)C=C1CC[C@@H]1[C@@H]2[C@@H](O)C[C@@]2(C)[C@H]1C[C@H]1O[C@@H](c3ccc(Cc4ccc(CO)cc4)cc3)O[C@]12C(=O)CO [Compound 4]
- EC50 (glucocorticoid receptor): 0.04 nM
- TNF-α secretion (pg/mL) from PBMC under R848 stimulation (human PBMC cells [1]; compound 4 nM): 443.6 pg/mL
- TNF-α secretion (pg/mL) from PBMC under R848 stimulation (human PBMC cells [1]; compound 20 nM): 320 pg/mL
- TNF-α secretion (pg/mL) from PBMC under R848 stimulation (human PBMC cells [1]; compound 100 nM): 356.1 pg/mL
- IFN-α secretion (pg/mL) from PBMC under R848 stimulation (human PBMC cells [2]; compound 4 nM): 13.2 ± 13.2 pg/mL
- IFN-α secretion (pg/mL) from PBMC under R848 stimulation (human PBMC cells [2]; compound 20 nM): 27.9 ± 27.9 pg/mL
- IFN-α secretion (pg/mL) from PBMC under R848 stimulation (human PBMC cells [2]; compound 100 nM): 0 ± 0 pg/mL
